The target in this assay is T1, Drak2 (Homo sapiens, UniProt O94768).
T1 sequence (O94768 1-372): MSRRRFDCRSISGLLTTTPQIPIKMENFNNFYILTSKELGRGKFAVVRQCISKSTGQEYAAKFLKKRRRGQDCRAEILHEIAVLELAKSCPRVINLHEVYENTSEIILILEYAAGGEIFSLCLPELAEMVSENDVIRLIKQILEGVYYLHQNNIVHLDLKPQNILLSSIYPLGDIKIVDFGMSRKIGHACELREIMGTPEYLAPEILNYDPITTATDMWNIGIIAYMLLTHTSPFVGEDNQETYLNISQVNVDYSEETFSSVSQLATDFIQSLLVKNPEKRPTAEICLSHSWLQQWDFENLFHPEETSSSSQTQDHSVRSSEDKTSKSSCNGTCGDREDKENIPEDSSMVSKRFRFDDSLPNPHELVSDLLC
Description: Drak2 activity test, ADP-Glo kinase assay (Promega). The assay is classed as biochemical. Conditions: inhibition of Drak2 kinase activity, 2 h room temperature, activity range classes, read-out: IC50_Drak2. On the technique in general: In ADP-Glo the light output rises with the ADP produced.
For the compound `COc1cc(-c2cncc(-c3cc(NC(=O)CC4(N)CCC4)cs3)n2)ccc1C(=O)N(C)C1CCN(C)CC1` [Example B94, 4-(6-(4-(2-(1-aminocyclobutyl)acetamido)thiophen-2-yl)pyrazin-2-yl)-2-methoxy-N-methyl-N-(1-methylpiperidin-4-yl)benzamide], the IC50 lay within 101 to 1000 nM.

As to `COc1cc(-c2cncc(-c3cc(NC(=O)CC4CC4)cs3)n2)ccc1S(=O)(=O)N(C)CCN(C)C` [Example B102, 2-cyclopropyl-N-(5-(6-(4-(N-(2-(dimethylamino)ethyl)-N-methylsulfamoyl)-3-methoxyphenyl)pyrazin-2-yl)thiophen-3-yl)acetamide], the IC50 was 11 to 100 nM.

For the compound `COc1cc(-c2cncc(-c3cc(NC(=O)CC4CCC4)cs3)n2)ccc1OCCN1CC2(CN(C)C2)C1` [Example 178, 2-cyclobutyl-N-{5-[6-(3-methoxy-4-{[2-(6-methyl-2,6-diazaspiro [3.3]hept-2-yl)ethyl]oxy}phenyl)pyrazin-2-yl]thiophen-3-yl} acetamide], the IC50 was in the range of 11 to 100 nM.

As for `COc1cc(-c2cncc(-c3cc(NC(=O)CC4CCC4)cs3)n2)ccc1O` [Example 183], the IC50 lay in the range of 11 to 100 nM.

For the compound `COc1cc(-c2cncc(-c3nc(NC(=O)CC4CCC4)cs3)n2)ccc1C(=O)N(C)C1CCN(C)CC1` [Example 223, 4-(6-{4-[(2-cyclobutylacetyl)amino]-1,3-thiazole-2-yl}pyrazin-2-yl)-2-methoxy-N-methyl-N-(1-methylhexahydropyridin-4-yl) benzamide], the IC50 was in the range of 101 to 1000 nM.

In the case of `COc1cc(-c2cncc(-c3cc(NC(=O)CC4CCCC4)cs3)n2)ccc1C(=O)Nc1nnnn1C` [Example B27, 2-methoxy-4-(6-(4-(2-cyclopentylacetamido)thiophen-2-yl)pyrazin-2-yl)-N-(1-methyl-1H-tetrazol-5-yl)benzamide], the IC50 was in the range of 11 to 100 nM.

Regarding `COc1cc(-c2cncc(-c3cc(NC(=O)CC4CCC4)cs3)n2)ccc1C(=O)N1CCN(C)CC1` [Example B39, 2-cyclobutyl-N-(5-(6-(3-methoxy-4-(4-methylpiperazine-1-carbonyl)phenyl)pyrazin-2-yl)thiophen-3-yl)acetamide], the IC50 was 11 to 100 nM.

With `COc1ccc(-c2cncc(-c3cc(NC(=O)C4CCC4)cs3)n2)cc1OC` [Example A7, N-(5-(6-(3,4-dimethoxyphenyl)pyrazin-2-yl)thiophen-3-yl)cyclobutanecarboxamide], the IC50 fell in the range of 101 to 1000 nM.

With `COc1cc(-c2cncc(-c3cc(NC(=O)CC4CC4)cs3)n2)ccc1S(C)(=O)=O` [Example A43, 2-cyclopropyl-N-(5-(6-(3-methoxy-4-(methylsulfonyl)phenyl)pyrazin-2-yl)thiophen-3-yl)acetamide], the IC50 is 11 to 100 nM.

In the case of `CCCCC(=O)Nc1csc(-c2cncc(-c3ccc(OC)c(OC)c3)n2)c1` [Example A1, N-(5-(6-(3,4-dimethoxyphenyl)pyrazin-2-yl)thiophen-3-yl)pentanamide], the IC50 lay within 101 to 1000 nM.

`COc1cc(-c2cncc(-c3cc(NC(=O)CC45CC(C4)C5)cs3)n2)ccc1C(=O)Nc1nnco1` [Example B80, 4-(6-(4-(2-(bicyclo[1.1.1]pentan-1-yl)acetamido)thiophen-2-yl)pyrazin-2-yl)-2-methoxy-N-(1,3,4-oxadiazol-2-yl)benzamide]: the IC50 fell in the range of 11 to 100 nM.

In the case of `COc1cc(-c2cncc(-c3cc(NC(=O)CC45CC(C4)C5)cs3)n2)ccc1C(=O)Nc1nnco1` [Example 204, 4-[6-(4-{[2-(bicyclo [1.1.1]penta-1-yl)acetyl]amino}thiophen-2-yl)pyrazin-2-yl]-2-methoxy-N-(1,3,4-oxadiazol-2-yl) benzamide], the IC50 lay within 101 to 1000 nM.

As for `COc1ccc(-c2cncc(-c3cc(NC(=O)C4CCC4)cs3)n2)cc1Cl` [Example A17, N-(5-(6-(3-chloro-4-methoxyphenyl)pyrazin-2-yl)thiophen-3-yl)cyclobutanecarboxamide], the IC50 is 101 to 1000 nM.

As for `COc1ccc(-c2cncc(-c3nc(NC(=O)OC(C)(C)C)cs3)n2)cc1OC` [Example D3, tert-butyl (2-(6-(3,4-dimethoxyphenyl)pyrazin-2-yl)thiazol-4-yl)carbamate], the IC50 is over 10000 nM.

With `COc1cc(-c2cncc(-c3cc(NC(=O)CC4CC4)cs3)n2)ccc1C(=O)Nc1cn(C)nc1OC` [Example B42, 4-(6-(4-(2-cyclopropylacetamido)thiophen-2-yl)pyrazin-2-yl)-2-methoxy-N-(3-methoxy-1-methyl-1H-pyrazol-4-yl)benzamide], the IC50 lay within 101 to 1000 nM.

Consider `CCCCC(=O)Nc1csc(-c2nccc(-c3ccc(C(=O)N(C)C4CCN(C)CC4)c(OC)c3)n2)c1` [Example B66, 2-methoxy-N-methyl-N-(1-methylpiperidin-4-yl)-4-(2-(4-pentanamidothiophen-2-yl)pyrimidin-4-yl)benzamide], for which the IC50 was in the range of 1000 to 10000 nM.

With `CCCCC(=O)Nc1csc(-c2cncc(-c3ccc(C(=O)N4CCN(C)CC4)c(OC)c3)n2)c1` [Example B37, N-(5-(6-(3-methoxy-4-(4-methylpiperazine-1-carbonyl)phenyl)pyrazin-2-yl)thiophen-3-yl)pentanamide], the IC50 lay in the range of 11 to 100 nM.

Consider `COc1cc(-c2cncc(-c3cc(NC(=O)CC4CC4)cs3)n2)ccc1C(=O)N(C)OC` [Example B79, 4-(6-(4-(2-cyclopropylacetamido)thiophen-2-yl)pyrazin-2-yl)-N,2-dimethoxy-N-methylbenzamide], for which the IC50 was 11 to 100 nM.

`Cn1ncc2ccc(-c3cncc(-c4cc(NC(=O)CC5CCC5)cs4)n3)cc21` [Example A49, 2-cyclobutyl-N-(5-(6-(1-methyl-1H-indazol-6-yl)pyrazin-2-yl)thiophen-3-yl)acetamide]: the IC50 fell in the range of 11 to 100 nM.

On to `COc1cc(-c2cncc(-c3cc(NC(=O)CC4CCC4)cs3)n2)ccc1OCCN1CCCC1` [Example 189, 2-Cyclobutyl-N-(5-(6-(3-methoxy-4-(2-(pyrrolidin-1-yl)ethoxy)phenyl)pyrazin-2-yl)thiophen-3-yl) acetamide], for which the IC50 was under 10 nM.

As to `CCCCC(=O)Nc1csc(-c2cncc(-c3ccc(C(=O)Nc4nccs4)c(OC)c3)n2)c1` [Example B8, 2-methoxy-4-(6-(4-pentanamidothiophen-2-yl)pyrazin-2-yl)-N-(thiazol-2-yl)benzamide], the IC50 fell in the range of 1000 to 10000 nM.

Consider `COc1cc(-c2cncc(-c3cc(NC(=O)CC4CCC4)cs3)n2)ccc1C(=O)Nc1nnco1` [Example B62, 4-(6-(4-(2-cyclobutylacetamido)thiophen-2-yl)pyrazin-2-yl)-2-methoxy-N-(1,3,4-oxadiazol-2-yl)benzamide], for which the IC50 lay within 11 to 100 nM.

With `CCCCC(=O)Nc1csc(-c2cncc(-c3ccc(OC)c(C#N)c3)n2)c1` [Example A21, N-(5-(6-(3-cyano-4-methoxyphenyl)pyrazin-2-yl)thiophen-3-yl)pentanamide], the IC50 was in the range of 101 to 1000 nM.

Regarding `COc1cc(-c2cncc(-c3cc(NC(=O)CC4COC4)cs3)n2)ccc1C(=O)N(C)C1CCN(C)CC1` [Example B89, 2-methoxy-N-methyl-N-(1-methylpiperidin-4-yl)-4-(6-(4-(2-(oxetan-3-yl)acetamido)thiophen-2-yl)pyrazin-2-yl)benzamide], the IC50 was in the range of 101 to 1000 nM.

As to `COc1ccc(-c2cncc(-c3cc(NC(=O)C4CCCCC4)cs3)n2)cc1OC` [Example A9, N-(5-(6-(3,4-dimethoxyphenyl)pyrazin-2-yl)thiophen-3-yl)cyclohexanecarboxamide], the IC50 lay within 101 to 1000 nM.

For `CCCCC(=O)Nc1csc(-c2cncc(-c3ccco3)n2)c1` [Example 220, N-{5-[6-(furyl-2-yl)pyrazin-2-yl]thiophen-3-yl}pentanamide], the IC50 is 101 to 1000 nM.

As to `CCCCC(=O)Nc1csc(-c2cncc(-c3ccc(OCCN4CC[S+]([O-])CC4)c(OC)c3)n2)c1` [Example 194, N-{5-[6-(3-methoxy-4-{[2-(1-oxo-1λ4-thiomorpholin-4-yl)ethyl]oxy}phenyl)pyrazin-2-yl]thiophen-3-yl} pentanamide], the IC50 was in the range of 11 to 100 nM.

Turning to `CCCCC(=O)Nc1csc(-c2cncc(-c3cc(OC)cc(OC)c3)n2)c1` [Example A18, N-(5-(6-(3,5-dimethoxyphenyl)pyrazin-2-yl)thiophen-3-yl)pentanamide], the IC50 was 101 to 1000 nM.

For `COc1cc(-c2cncc(-c3cc(NC(=O)CC4CC(C(C)=O)C4(C)C)cs3)n2)ccc1C(=O)N(C)C1CCN(C)CC1` (stereo not drawn) [Example B87, 4-(6-(4-(2-(3-acetyl-2,2-dimethylcyclobutyl)acetamido)thiophen-2-yl)pyrazin-2-yl)-2-methoxy-N-methyl-N-(1-methylpiperidin-4-yl)benzamide], the IC50 fell in the range of 101 to 1000 nM.

Turning to `COc1cc(-c2cncc(-c3cc(NC(=O)CC4CC4)cs3)n2)ccc1C(=O)Nc1nnnn1C` [Example B25, 2-methoxy-4-(6-(4-(2-cyclopropylacetamido)thiophen-2-yl)pyrazin-2-yl)-N-(1-methyl-1H-tetrazol-5-yl)benzamide], the IC50 lay within 11 to 100 nM.

With `CCCCC(=O)Nc1csc(-c2cncc(-c3ccc(C#N)c(OC)c3)n2)c1` [Example A20, N-(5-(6-(4-cyano-3-methoxyphenyl)pyrazin-2-yl)thiophen-3-yl)pentanamide], the IC50 is 101 to 1000 nM.

As to `COc1cc(-c2cncc(-c3cc(NC(=O)CC4CCC4)cs3)n2)ccc1S(C)(=O)=O` [Example A44, 2-cyclobutyl-N-(5-(6-(3-methoxy-4-(methylsulfonyl)phenyl)pyrazin-2-yl)thiophen-3-yl)acetamide], the IC50 lay in the range of 11 to 100 nM.

As to `COc1cc(-c2cncc(-c3cc(NC(=O)CC4CCC4)cs3)n2)ccc1OCCc1ccccn1` [Example 172, 2-cyclobutyl-N-{5-[6-(3-methoxy-4-{[2-(pyridin-2-yl)ethyl]oxy}phenyl)pyrazin-2-yl]thiophen-3-yl} acetamide], the IC50 was 101 to 1000 nM.

The record behind these values is patent publication US20240308992A1 (Biopolar Youtang(Guangdong) Pharmaceutical Co., Ltd., priority 2021, published 2024).
